This is an account of results in patent US11944624B2, “Peptide and small molecule agonists of EphA and their uses” (CASE WESTERN RESERVE UNIVERSITY, priority 2017, dated 2024).

Assay [1] concerns the target T1, EphA2 (Homo sapiens, UniProt P29317). In words: EphA2 activation in MDA-MB-231-A2 cells (phosphorylated/total EphA2, Example 2). The assay is classed as cell-based. Details: expressed in transfected cells; host or cells: MDA-MB-231 (MDA-231-A2 / MDA-MB-231-A2), puromycin selected. Particulars: MDA-MB-231-A2 cells, 2, 10 and 50 μM, 30 min. On the procedure:
To evaluate the compounds, we utilized a MDA-MB-231 breast cancer cell line which overexpresses EphA2 receptor (MDA-MB-231-A2). The ratio of phosphorylated EphA2 protein over total EphA2 protein was measured after treatment with the various compounds as the readout for receptor activation. All the compounds were examined with doses of 2, 10, and 50 μM, and we used 50 μM Doxazosin and 0.5% DMSO as the positive and negative control, respectively (FIG. 27). […] Inspired by the dimer design, we also generated dimer structure based on the piperazine ring as the core as illustrated by compounds 25 and 26.
MDA-MB-231 EphA2-overexpressing cells were plated in 12-well dishes at a density of 100,000 cells/well and grown for 24 hours prior to stimulation with appropriate compounds and ephrins for 30 min and 10 min, respectively. Compounds were prepared in DMSO at 200 times the final concentrations and 0.5% DMSO was used as vehicle control. Following treatment, cells were washed and lysed in modified RIPA Buffer (20 mM Tris-HCl pH 7.4, 20 mM NaF, 150 mM NaCl, 10% glycerol, 0.1% SDS, 0.5% DCA, 2 mM EDTA, 1% Triton X-100, 2 mM Na3VO4, and protease inhibitors, including 1 mM phenylmethylsulphonyl fluoride, and 2 μg/ml each of aprotinin and leupeptin) for 20 min, followed by immunoprecipitation. For immunoprecipitation, lysates were combined with 10 μg of ephrin-A1-Fc and 10-15 μl of Gamma-Bind Protein G beads (GE Healthcare Bioscience, Pittsburgh, PA) and rotated for 3 hours at 4° C. 10 μg of human unconjugated Fc was used as a negative control. Beads were pelleted at 9,000 rpm for 2 min at 4° C., and washed twice with 1 ml of IP Wash Buffer (20 mM Tris, pH 7.4, 10% glycerol, 50 mM NaCl, 0.2% Triton X-100, 0.5 mM Na3VO4, 0.5 mM PMSF). All wash buffer was removed and beads were resuspended in 25 μl of 4× LDS Loading Buffer (Thermo Fisher, Grand Island, NY) with 4 μl of 10× Bolt Sample Reducing Agent (Thermo Fisher), followed by Western Blotting. Samples were boiled 5 min and run on 4-12% Bis-Tris Plus gels (Thermo Fisher), followed by transfer to Immobilon-P PVDF membranes (Millipore, Billerica, MA). Membranes were blocked 1 hr at room temperature in 3% BSA in TBS containing 0.05% Tween-20 (TBS-T) followed by overnight incubation with pEphA/B (1:500) and EphA2 (Santa Cruz) (1:1000) primary antibodies. Membranes were washed in TBS-T and incubated with goat anti-rabbit-HRP (1:5000) secondary antibody 1 hr at room temperature, followed by washing and developing with Luminol Reagent (Santa Cruz). Band intensities were quantified using Quantity One software (Bio-Rad, Hercules, CA).

In the next assay the test system is MDA-MB-231 cells. In words: Clonogenic (colony formation) assay. The assay is classed as cell-based. Particulars: 0.08-10 μM, 14 days. Here is the method:
MDA-MB-231 cells (1000 cells/well) were seeded in 12-well plates and cultured for 24 h, followed by treatment with various concentrations of the Doxazosin analogs (0, 0.08, 0.4, 2 and 10 μM) in 0.5% DMSO for 14 days. After washing with PBS, colonies were fixed in 4% paraformaldehyde in PBS, washed in 20% methanol, and stained with 0.5% crystal violet.

Assay [2] has as its target T2, rat α1a adrenergic receptor (Rattus norvegicus, UniProt P43140).
T2 construct: Eurofins Panlabs Taiwan, Ltd. (contract assay)
T2 sequence (P43140 1-466): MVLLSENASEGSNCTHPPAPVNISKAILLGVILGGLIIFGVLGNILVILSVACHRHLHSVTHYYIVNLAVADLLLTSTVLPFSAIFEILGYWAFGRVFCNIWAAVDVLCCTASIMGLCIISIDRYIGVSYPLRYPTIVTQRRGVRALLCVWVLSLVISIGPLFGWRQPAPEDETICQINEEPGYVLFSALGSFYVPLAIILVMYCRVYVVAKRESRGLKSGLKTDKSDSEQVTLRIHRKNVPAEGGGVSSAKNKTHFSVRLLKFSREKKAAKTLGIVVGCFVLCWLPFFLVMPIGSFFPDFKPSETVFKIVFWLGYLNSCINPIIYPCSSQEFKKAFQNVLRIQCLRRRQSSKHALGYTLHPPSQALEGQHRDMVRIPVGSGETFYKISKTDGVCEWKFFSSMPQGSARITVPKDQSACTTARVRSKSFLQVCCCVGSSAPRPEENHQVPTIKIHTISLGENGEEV
In words: Adrenoceptor binding, [3H]-prazosin competition. Particulars: [3H]-prazosin 0.25 nM, triplicate, mean±SD; read-out: IC50, α-adrenoceptor binding. Here is the method:
Analysis of Doxazosin and analog binding to rat α1a adrenergic receptor was performed by Eurofins Panlabs Taiwan, Ltd. (Taiwan). [^3H]-prazosin at 0.25 nM was used as the radioligand. […] Non-specific binding was defined by use of 10 μM phentolamine. Incubations were terminated by vacuum filtration over 0.1% PEI pretreated glass fiber filters and filters were washed for 10 s with ice cold 0.1M NaCl and radioactivity retained on the filters was determined by liquid scintillation spectrometry. IC50 values were determined by a non-linear regression analysis using GraphPad Prism v.5 (GraphPad).

The target in assay [3] is T1, EphA2. In words: EphA2 internalization in MDA-MB-231 cells (immunofluorescence, Example 2). The assay is classed as cell-based. Details: expressed in transfected cells; host or cells: MDA-MB-231 (MDA-231-A2 / MDA-MB-231-A2), puromycin selected. Particulars: 1 hr, doses 0.4, 2, 10, 50 μM. On the procedure:
This was performed using the MDA-MB-231 cell line. This cell line spreads well in culture, thereby facilitating immunofluorescence detection of cell surface and intracellular EphA2 (FIG. 28). […] MDA-MB-231 cells were plated in 24-well plates on 10 mm square coverslips coated with 10 μg/ml fibronectin and incubated 24-48 hrs before treatment with 50 μM Doxazosin and various doses of compound 27 (0.4, 2, 10, 50 μM) in 0.5% DMSO for 1 hr. As another positive control, cells were treated with 2 μg/ml ephrin-A1-Fc. Cells were then washed with PBS and fixed with 4% paraformaldehyde (Electron Microscopy Sciences, Hatfield, PA) on ice for 10 min, followed by washing and permeabilization with 0.4% NP-40 for 10 min on ice. […] Cells were then incubated in primary mouse EphA2 antibody (D7, 1:100) in 0.1% BSA/PBS for 1 hr at room temperature, washed in PBS and BSA/PBS, followed by incubation in secondary donkey anti-mouse Alexa Fluor 488 antibody (1:300) in BSA/PBS for 30 min at room temperature. Cells were washed in PBS and BSA/PBS, followed by mounting in DAPI Mounting Medium (Electron Microscopy Sciences). Images were taken with a Leica microscope.

Entries after “also recorded” stand apart in the source; their conditions may differ.

T1 sequence (P29317 24-976): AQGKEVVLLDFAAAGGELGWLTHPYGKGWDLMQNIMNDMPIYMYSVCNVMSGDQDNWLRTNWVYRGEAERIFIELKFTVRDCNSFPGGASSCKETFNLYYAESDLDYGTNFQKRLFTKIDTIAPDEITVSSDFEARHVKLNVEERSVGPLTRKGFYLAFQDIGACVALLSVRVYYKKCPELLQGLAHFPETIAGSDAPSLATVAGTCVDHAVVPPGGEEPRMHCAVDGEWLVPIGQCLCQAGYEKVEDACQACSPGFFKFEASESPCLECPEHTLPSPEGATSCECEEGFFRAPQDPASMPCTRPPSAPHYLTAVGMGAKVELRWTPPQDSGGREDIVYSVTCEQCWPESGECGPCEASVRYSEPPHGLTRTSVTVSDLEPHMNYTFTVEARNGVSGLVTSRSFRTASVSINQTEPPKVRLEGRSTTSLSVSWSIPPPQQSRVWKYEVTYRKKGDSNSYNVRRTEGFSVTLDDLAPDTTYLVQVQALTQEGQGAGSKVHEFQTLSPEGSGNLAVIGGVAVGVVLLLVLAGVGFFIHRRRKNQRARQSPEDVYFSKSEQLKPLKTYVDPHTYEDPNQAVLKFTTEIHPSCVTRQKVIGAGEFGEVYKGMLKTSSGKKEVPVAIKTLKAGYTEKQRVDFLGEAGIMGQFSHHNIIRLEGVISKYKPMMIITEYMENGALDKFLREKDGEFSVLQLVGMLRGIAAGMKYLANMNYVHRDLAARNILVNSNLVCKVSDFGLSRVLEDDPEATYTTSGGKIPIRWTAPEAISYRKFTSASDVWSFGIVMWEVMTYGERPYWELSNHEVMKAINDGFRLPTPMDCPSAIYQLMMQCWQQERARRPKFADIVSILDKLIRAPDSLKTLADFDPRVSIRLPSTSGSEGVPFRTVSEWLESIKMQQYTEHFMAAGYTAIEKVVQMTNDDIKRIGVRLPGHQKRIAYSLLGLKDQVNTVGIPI

On to `COc1cc2nc(N3CCN(C(=O)c4cccc(-c5ccccc5)c4)CC3)nc(N)c2cc1OC` [Compound 2, [1,1′-biphenyl]-3-yl(4-(4-amino-6,7-dimethoxyquinazolin-2-yl)piperazin-1-yl)methanone], for which the “EphA2 activation compared to 50 μM Doxazosin” value on EphA2 [1] is reported as “higher activity than compound 3; also recorded: did not show a much higher activity than the lead compound Doxazosin”. As to `COc1cc2nc(N3CCN(C(=O)C4COc5ccccc5O4)CC3)nc(NC(C)=O)c2cc1OC` (centres unmarked) [Compound 29, N-(2-(4-(2,3-dihydrobenzo[b][1,4]dioxine-2-carbonyl)piperazin-1-yl)-6,7-dimethoxyquinazolin-4-yl)acetamide], on EphA2 [1], the “EphA2 activation compared to 50 μM Doxazosin” value is recorded as “significantly diminishes the activity”. On the same count and under the same terms, for `COc1cc2nc(N3CCN(C(=O)Cc4ccc(OCc5ccccc5)cc4)CC3)nc(N3CCCC3)c2cc1OC` [Compound 32, 2-(4-(benzyloxy)phenyl)-1-(4-(6,7-dimethoxy-4-(pyrrolidin-1-yl)quinazolin-2-yl)piperazin-1-yl)ethanone] the value was “harm the EphA2 activation”; for `COc1cc2nc(N3CCN(C(=O)c4ccc5ccccc5c4)CC3)nc(N)c2cc1OC` [Compound 1, (4-(4-amino-6,7-dimethoxyquinazolin-2-yl)piperazin-1-yl)(naphthalen-2-yl)methanone], “higher activity than compound 3; also recorded: did not show a much higher activity than the lead compound Doxazosin”. Take `COc1cc2nc(N3CCN(C(=O)Cc4ccc(OCc5ccccc5)cc4)CC3)nc(NC(C)=O)c2cc1OC` [Compound 30, N-(2-(4-(2-(4-(benzyloxy)phenyl)acetyl)piperazin-1-yl)-6,7-dimethoxyquinazolin-4-yl)acetamide]: the “EphA2 activation compared to 50 μM Doxazosin” value on EphA2 [1] is recorded as “significantly diminishes the activity”. Regarding `CCCCCC(=O)N1CCN(c2nc(N)c3cc(OC)c(OC)cc3n2)CC1` [Compound 23, 1-(4-(4-amino-6,7-dimethoxyquinazolin-2-yl)piperazin-1-yl)hexan-1-one], the “inhibition of colony formation” value in the assay on MDA-MB-231 cells is “moderate activity to inhibit the colony formation”. Also, the “EphA2 activation compared to 50 μM Doxazosin” value at EphA2 [1] was “slightly decreased activity”. As for `COc1ccc(C(=O)N2CCN(C(=O)c3ccc(OC)cc3)CC2)cc1` [Compound 25, piperazine-1,4-diylbis((4-methoxyphenyl)methanone)], the “EphA2 activation compared to 50 μM Doxazosin” value at EphA2 [1] was “significantly decreased activity”.

With `COc1cc2nc(N3CCN(C(=O)Cc4ccc(OCc5ccccc5)cc4)CC3)nc(N)c2cc1OC` [Compound 24, 1-(4-(4-amino-6,7-dimethoxyquinazolin-2-yl)piperazin-1-yl)-2-(4-(benzyloxy)phenyl)ethanone], the “inhibition of colony formation” value with MDA-MB-231 cells is “slightly weaker activity compared to compound 27; also recorded: inhibit the colony formation”. Also, the “EphA2 activation compared to 50 μM Doxazosin” value on EphA2 [1] was “potent EphA2 activation; also recorded: improved EphA2 activation compared to Doxazosin”. In assay [2], the half-inhibitory concentration (IC50) (commonly the point on the concentration scale where inhibition reaches its midpoint) was 4.28 ± 3.1 nM. On to `COc1cc2nc(N3CCN(C(=O)CCCCCCCCCCC(=O)N4CCN(c5nc(N)c6cc(OC)c(OC)cc6n5)CC4)CC3)nc(N)c2cc1OC` [Compound 27, 1,12-bis(4-(4-amino-6,7-dimethoxyquinazolin-2-yl)piperazin-1-yl)dodecane-1,12-dione], for which the “inhibition of colony formation” value with MDA-MB-231 cells was “inhibited colony formation even at nanomolar concentrations; also recorded: inhibit the colony formation; also recorded: inhibits cancer cell colony formation”. Besides, the “EphA2 activation compared to 50 μM Doxazosin” value on EphA2 [1] is “superior activity within the new compound pool; also recorded: significantly increased activity compared to Doxazosin; also recorded: the most active one in the SAR study; also recorded: improved EphA2 activation compared to Doxazosin”. Moreover, the “concentration at which EphA2 internalization happened” value on EphA2 [3] came out at 0.4 µM. Further, in assay [2], the concentration for half-maximal inhibition (IC50) stood at 2.5 ± 1.62 nM.

With `CCOc1cc2nc(N3CCN(C(=O)Cc4ccc(OCc5ccccc5)cc4)CC3)nc(N)c2cc1OCC` [Compound 33, 1-(4-(4-amino-6,7-diethoxyquinazolin-2-yl)piperazin-1-yl)-2-(4-(benzyloxy)phenyl)ethanone], on EphA2 [1], the “EphA2 activation compared to 50 μM Doxazosin” value was “diminishes the activity”.

With `COc1cc2nc(N3CCN(C(=O)c4ccc(Cl)c([N+](=O)[O-])c4)CC3)nc(N)c2cc1OC` [Compound 13, (4-(4-amino-6,7-dimethoxyquinazolin-2-yl)piperazin-1-yl)(4-chloro-3-nitrophenyl)methanone], the “EphA2 activation compared to 50 μM Doxazosin” value on EphA2 [1] was “decreases the activity”. On to `COc1cc2nc(N3CCN(C(=O)Cc4ccc(OCc5ccccc5)cc4)CC3)nc(N3CCCCC3)c2cc1OC` [Compound 31, 2-(4-(benzyloxy)phenyl)-1-(4-(6,7-dimethoxy-4-(piperidin-1-yl)quinazolin-2-yl)piperazin-1-yl)ethanone], for which the “EphA2 activation compared to 50 μM Doxazosin” value on EphA2 [1] is given as “harm the EphA2 activation”. As for `COc1cc2nc(N3CCN(C(=O)CCCCC(=O)N4CCN(c5nc(N)c6cc(OC)c(OC)cc6n5)CC4)CC3)nc(N)c2cc1OC` [Compound 28, 1,6-bis(4-(4-amino-6,7-dimethoxyquinazolin-2-yl)piperazin-1-yl)hexane-1,6-dione], on EphA2 [1], the “EphA2 activation compared to 50 μM Doxazosin” value is “does not show any activity to activate EphA2”. For the compound `CSc1ccc(C(=O)N2CCN(C(=O)c3ccc(SC)cc3)CC2)cc1` [Compound 26, piperazine-1,4-diylbis((4-(methylthio)phenyl)methanone)], at EphA2 [1], the “EphA2 activation compared to 50 μM Doxazosin” value is on record as “significantly decreased activity”.
